In patent US8008286B2, “Method for treatment of neuropathic pain” (University of Virginia Patent Foundation, priority 2006, dated 2011):

What was measured:
[1] = tested on: rat with a crushed sciatic nerve; test: Pain assay, 'trauma' model of neuropathic pain (crushed sciatic nerve), paw withdrawal latency with heat lamp; format: in vivo; settings: rats, 10 mg/kg IP once on day 0, tested each day
Experimental: Test compound, VPC01091 (Drug T, mixture of all isomers), was dissolved in 2% hydroxypropyl beta-cyclodextrin in water and administered to the test group of laboratory rats. The vehicle (Drug V: 2% hydroxypropyl beta-cyclodextrin in water) was administered to the control group of laboratory rats. Each group included 11 animals.
The identities of ‘Drug T’ and ‘Drug V’ were maintained in secret to prevent bias. The test solutions (test compound or vehicle) were intraperitoneally (IP) administered once (day 0), the dose was 10 mg/kg body weight. On day 0, each of the 22 animals was anesthetized, the sciatic nerve bundle on the right side exposed surgically, and crushed mechanically. This is known as the ‘trauma’ model of neuropathic pain. The animals were tested each day for the time required to lift either paw after illumination with small heat lamp.

[2] = tested on: sciatic nerve injury (CCI) model; test: Sciatic nerve injury (CCI) model of neuropathic pain, mechanical allodynia; format: in vivo, rat; settings: rats, 3 mg/kg p.o. once a day for 5 days, started 2 weeks after nerve injury
Excerpt: In these models, oral treatment with VPC01091-D was started 2 weeks following nerve injury, once the pain was established. A control group received only vehicle. Following once a day dosing for 5 days, […].) reversed mechanical allodynia by 42±8% in the CCI model. (See FIG. 5).

[3] = tested on: spinal nerve injury (SNL) model; test: Spinal nerve injury (SNL) model of neuropathic pain, mechanical allodynia; format: in vivo, rat; settings: rats, 3 mg/kg p.o., started 2 weeks after nerve injury
Excerpt: In these models, oral treatment with VPC01091-D was started 2 weeks following nerve injury, once the pain was established. A control group received only vehicle.

SPHK2 enzyme = molecular target: T1, SPHK2 enzyme (Homo sapiens, UniProt Q9NRA0); test: Phosphorylation by the SPHK2 enzyme in vitro; format: biochemical; settings: separated isomers of VPC01091, in vitro
T1 sequence (Q9NRA0 1-654): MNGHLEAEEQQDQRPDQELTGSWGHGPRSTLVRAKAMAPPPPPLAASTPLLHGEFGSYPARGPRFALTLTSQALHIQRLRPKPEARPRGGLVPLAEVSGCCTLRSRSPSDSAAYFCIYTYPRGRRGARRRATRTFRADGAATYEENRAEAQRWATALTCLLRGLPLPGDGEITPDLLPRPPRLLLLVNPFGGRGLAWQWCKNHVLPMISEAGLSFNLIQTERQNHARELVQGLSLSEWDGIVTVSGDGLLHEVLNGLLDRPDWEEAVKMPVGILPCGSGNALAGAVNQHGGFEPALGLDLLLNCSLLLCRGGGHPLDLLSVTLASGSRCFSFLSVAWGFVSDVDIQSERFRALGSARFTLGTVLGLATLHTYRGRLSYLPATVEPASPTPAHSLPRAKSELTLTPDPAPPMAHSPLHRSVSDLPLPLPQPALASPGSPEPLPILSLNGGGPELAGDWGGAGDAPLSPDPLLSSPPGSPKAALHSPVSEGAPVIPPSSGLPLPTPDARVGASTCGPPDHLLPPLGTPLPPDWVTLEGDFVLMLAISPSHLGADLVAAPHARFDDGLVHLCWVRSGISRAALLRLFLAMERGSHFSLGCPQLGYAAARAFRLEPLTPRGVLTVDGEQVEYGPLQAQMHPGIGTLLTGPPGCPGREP
Experimental: These compounds can be prepared as a mixture and separated by chromatography. Exemplary conditions for separation are as follows: Column: Chiralpak AD 4.6 mm ID×250 mm, Mobile Phase: Hex/EtOH/MeOH/DEA=95/2.5/2.5/0.03, Flow Rate: 1 mL/min, Detector: UV 220 nm, Column Temp: 40° C., or Column Temp: 25° C.

phosphorylated by the SPHK2 enzyme in vitro (SPHK2 enzyme)	SMILES	analgesic effect (PWL time increases after injury), only on the affected side [1]	development of thermal hyperalgesia in the affected (crushed nerve) paw (PWL) [1]	reversed mechanical allodynia [2] [%]	analgesic activity [3] [%]
	CCCCCCCCc1ccc(C2CCC(N)(CO)C2)cc1 (centres unmarked) [VPC01091, (1-amino-3-(4-octylphenyl)cyclopentyl)methanol]	exhibited an analgesic effect	prevented the development of thermal hyperalgesia		
not phosphorylated	CCCCCCCCc1ccc([C@H]2CC[C@](N)(CO)C2)cc1 [VPC01091-D]			42±8	50±10
